Common to all, as to test: biochemical
Format in all cases: binding

Experiment [1] addresses T1, panel of 442 kinases (Homo sapiens, UniProt O60285).
T1 construct: purchased Ambit Biosciences (scanMAXX KINOMEscan)
T1 sequence (O60285 1-661): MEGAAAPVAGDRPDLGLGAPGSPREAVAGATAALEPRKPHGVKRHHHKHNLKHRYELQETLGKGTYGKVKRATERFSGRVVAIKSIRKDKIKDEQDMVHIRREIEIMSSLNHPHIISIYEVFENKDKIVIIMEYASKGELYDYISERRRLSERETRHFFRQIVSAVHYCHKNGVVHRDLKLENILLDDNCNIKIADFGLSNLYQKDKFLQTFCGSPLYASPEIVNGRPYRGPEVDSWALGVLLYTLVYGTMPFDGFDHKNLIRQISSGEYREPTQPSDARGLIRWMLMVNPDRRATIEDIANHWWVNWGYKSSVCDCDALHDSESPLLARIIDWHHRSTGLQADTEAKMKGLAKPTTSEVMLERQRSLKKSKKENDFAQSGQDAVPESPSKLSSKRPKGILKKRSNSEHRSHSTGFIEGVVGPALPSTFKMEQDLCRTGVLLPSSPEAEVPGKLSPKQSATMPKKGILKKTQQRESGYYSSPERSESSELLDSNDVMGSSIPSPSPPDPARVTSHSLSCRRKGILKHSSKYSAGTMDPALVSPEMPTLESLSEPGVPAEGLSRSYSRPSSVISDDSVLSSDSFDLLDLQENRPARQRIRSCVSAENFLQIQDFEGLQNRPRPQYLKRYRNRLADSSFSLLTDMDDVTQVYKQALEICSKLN
The note with it: ARK5; for remaining activity at 1 µM: read-out: % of control at 1 µM.

In experiment [2] the target is T2, panel of 442 kinases (Homo sapiens, UniProt O76039).
T2 construct: purchased Ambit Biosciences (scanMAXX KINOMEscan)
T2 sequence (O76039 1-960): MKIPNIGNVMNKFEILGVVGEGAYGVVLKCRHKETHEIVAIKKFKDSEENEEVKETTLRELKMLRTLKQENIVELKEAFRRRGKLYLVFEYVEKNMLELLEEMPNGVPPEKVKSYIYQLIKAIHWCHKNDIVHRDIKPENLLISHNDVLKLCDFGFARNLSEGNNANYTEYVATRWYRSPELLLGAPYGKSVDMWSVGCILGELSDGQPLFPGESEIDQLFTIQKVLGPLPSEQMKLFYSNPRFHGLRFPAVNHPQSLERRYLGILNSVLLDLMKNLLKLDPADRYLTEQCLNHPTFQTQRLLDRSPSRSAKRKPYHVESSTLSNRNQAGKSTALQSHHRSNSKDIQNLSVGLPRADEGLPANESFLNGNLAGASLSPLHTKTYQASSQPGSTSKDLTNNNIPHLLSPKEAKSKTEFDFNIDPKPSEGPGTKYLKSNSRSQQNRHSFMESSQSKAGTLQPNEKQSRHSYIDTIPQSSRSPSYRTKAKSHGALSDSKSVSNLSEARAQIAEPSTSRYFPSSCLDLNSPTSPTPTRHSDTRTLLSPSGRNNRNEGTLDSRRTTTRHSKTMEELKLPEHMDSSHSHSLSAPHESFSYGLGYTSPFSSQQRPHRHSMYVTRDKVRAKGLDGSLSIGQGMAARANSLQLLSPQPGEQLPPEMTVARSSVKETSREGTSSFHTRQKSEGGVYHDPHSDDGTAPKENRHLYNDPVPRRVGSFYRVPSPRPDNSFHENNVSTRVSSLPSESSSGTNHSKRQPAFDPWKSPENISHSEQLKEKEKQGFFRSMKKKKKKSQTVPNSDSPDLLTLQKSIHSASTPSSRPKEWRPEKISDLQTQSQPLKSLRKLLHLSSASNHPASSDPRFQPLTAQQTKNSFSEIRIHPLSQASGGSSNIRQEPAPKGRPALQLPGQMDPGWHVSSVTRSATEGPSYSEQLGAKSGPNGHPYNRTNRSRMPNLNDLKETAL
The note with it: CDKL5; for remaining activity at 1 µM: read-out: % of control at 1 µM.

Experiment [3] addresses T3, panel of 442 kinases (Homo sapiens, UniProt Q00535).
T3 construct: purchased Ambit Biosciences (scanMAXX KINOMEscan)
The note with it: CDK5; for remaining activity at 1 µM: read-out: % of control at 1 µM.

In experiment [4] the target is T4, panel of 442 kinases (Homo sapiens, UniProt Q96PY6).
T4 construct: purchased Ambit Biosciences (scanMAXX KINOMEscan)
T4 sequence (Q96PY6 1-1258): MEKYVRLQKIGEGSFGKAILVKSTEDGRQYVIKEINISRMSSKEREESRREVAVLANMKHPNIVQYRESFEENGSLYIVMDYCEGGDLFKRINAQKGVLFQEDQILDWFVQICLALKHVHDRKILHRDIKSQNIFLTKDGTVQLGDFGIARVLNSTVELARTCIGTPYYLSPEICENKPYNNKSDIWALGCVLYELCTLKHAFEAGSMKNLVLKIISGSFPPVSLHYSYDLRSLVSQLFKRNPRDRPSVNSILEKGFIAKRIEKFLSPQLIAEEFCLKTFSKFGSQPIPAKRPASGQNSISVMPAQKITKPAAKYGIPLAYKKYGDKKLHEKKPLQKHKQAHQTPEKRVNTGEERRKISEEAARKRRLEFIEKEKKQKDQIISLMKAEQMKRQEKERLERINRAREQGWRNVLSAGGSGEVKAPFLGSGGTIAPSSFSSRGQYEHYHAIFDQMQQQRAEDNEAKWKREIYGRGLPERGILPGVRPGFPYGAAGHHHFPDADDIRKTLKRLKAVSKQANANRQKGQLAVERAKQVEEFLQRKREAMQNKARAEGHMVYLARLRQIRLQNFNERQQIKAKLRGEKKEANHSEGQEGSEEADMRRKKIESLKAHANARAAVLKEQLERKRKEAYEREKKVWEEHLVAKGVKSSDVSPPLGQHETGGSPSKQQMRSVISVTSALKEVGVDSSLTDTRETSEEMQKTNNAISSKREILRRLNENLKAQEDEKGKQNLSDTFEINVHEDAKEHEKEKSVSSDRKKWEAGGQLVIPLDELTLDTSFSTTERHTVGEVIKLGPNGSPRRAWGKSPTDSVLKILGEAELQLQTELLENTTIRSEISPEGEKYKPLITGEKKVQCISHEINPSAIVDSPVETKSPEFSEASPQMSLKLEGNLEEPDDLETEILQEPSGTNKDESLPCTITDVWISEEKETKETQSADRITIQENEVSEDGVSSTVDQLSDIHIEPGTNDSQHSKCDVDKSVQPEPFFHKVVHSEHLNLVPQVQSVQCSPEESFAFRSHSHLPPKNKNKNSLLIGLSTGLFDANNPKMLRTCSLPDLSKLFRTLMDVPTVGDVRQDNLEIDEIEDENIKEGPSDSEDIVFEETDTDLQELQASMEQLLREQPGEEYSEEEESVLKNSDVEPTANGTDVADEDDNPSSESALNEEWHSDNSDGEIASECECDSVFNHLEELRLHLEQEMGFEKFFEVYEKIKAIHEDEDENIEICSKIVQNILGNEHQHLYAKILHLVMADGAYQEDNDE
The note with it: kinase NEK1; for remaining activity at 1 µM: read-out: % of control at 1 µM.

Where [5] appears, read: 10 µM, read-out: % of control at 10 µM.

T3 sequence (Q00535 whole entry): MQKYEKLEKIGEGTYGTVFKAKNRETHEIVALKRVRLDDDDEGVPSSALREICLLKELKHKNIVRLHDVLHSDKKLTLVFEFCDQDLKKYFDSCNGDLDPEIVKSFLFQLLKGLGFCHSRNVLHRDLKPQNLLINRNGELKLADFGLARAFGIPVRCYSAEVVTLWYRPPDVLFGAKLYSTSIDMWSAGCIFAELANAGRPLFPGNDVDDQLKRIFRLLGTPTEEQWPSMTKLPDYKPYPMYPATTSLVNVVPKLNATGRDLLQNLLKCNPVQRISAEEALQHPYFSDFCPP

Take `COc1ncc(-c2ccc3nccc(-c4ccnnc4)c3c2)cc1NS(=O)(=O)c1ccc(F)cc1F` [Omipalisib]: the remaining activity at 1 µM was found to be 100% in experiment [1], 100% in experiment [2], 100% in experiment [3] and 87% in experiment [4].

For `Cn1c(=O)n(-c2ccc(C(C)(C)C#N)cc2)c2c3cc(-c4cnc5ccccc5c4)ccc3ncc21` [Dactolisib, 2-methyl-2-[4-(3-methyl-2-oxo-8-quinolin-3-yl-2,3-dihydroimidazo[4,5-c]quinolin-1-yl)-phenyl] propionitrile], the remaining activity at 1 µM in experiment [1] amounted to 32%; in experiment [2] it was 100%; in experiment [3], 100%; in experiment [4], 98%.

On to `Nc1cc(C(F)(F)F)c(-c2cc(N3CCOCC3)nc(N3CCOCC3)n2)cn1` [Buparlisib], for which the remaining activity at 1 µM in experiment [1] stood at 100%; in experiment [2] it was 88%; in experiment [3], 100%; in experiment [4], 100%. Besides, the remaining activity at 10 µM was 100% in experiment [1] (setting [5]), 100% in experiment [2] (setting [5]), 99% in experiment [3] (setting [5]) and 100% in experiment [4] (setting [5]).

Consider `FC(F)c1nc2ccccc2n1-c1nc(N2CCOCC2)nc(N2CCOCC2)n1` [ZSTK474, 2-(difluoromethyl)-1-[4,6-di(4-morpholinyl)-1,3,5-triazin-2-yl]-1H-benzimidazole], for which the remaining activity at 1 µM in experiment [1], in experiment [2], in experiment [3] and in experiment [4] was 100% in each case.
